In publication PMC3747263 (PLoS ONE, 2013):

How the values were obtained:
LecB (PA-IIL) = LecB (PA-IIL) (Pseudomonas aeruginosa, UniProt Q9HYN5); format: binding; conditions: read-out: LecB / KD
BambL = target: T1, BambL (Burkholderia ambifaria, UniProt Q0B4G1); test: X-ray crystal structure of complex, […] Å; format: binding; conditions: co-crystallised with 5 mM sugar; intra- and intermonomeric sites; reservoir pH 5.0
T1 construct: gene Bamb_5415
T1 sequence (Q0B4G1 1-87 limits assumed): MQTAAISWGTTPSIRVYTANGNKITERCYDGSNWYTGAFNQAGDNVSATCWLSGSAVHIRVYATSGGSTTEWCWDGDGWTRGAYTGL

Sequence of LecB (PA-IIL) (Q9HYN5 2-115 limits assumed): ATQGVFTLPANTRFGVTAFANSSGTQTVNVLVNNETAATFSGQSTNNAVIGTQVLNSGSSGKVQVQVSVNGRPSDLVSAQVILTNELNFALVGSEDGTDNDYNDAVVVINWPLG

Row | SMILES | Kd (LecB (PA-IIL)) [nM] | X-ray crystal structure of complex, 1.6 Å (BambL)
1 | CC(=O)N[C@H]1[C@@H](O[C@H]2[C@@H](O)[C@@H](CO)OC(O)[C@@H]2O[C@@H]2O[C@@H](C)[C@@H](O)[C@@H](O)[C@@H]2O)O[C@H](CO)[C@H](O)[C@@H]1O (some centres unmarked) [A tri] | 10300 | –
2 | CC(=O)N[C@H]1[C@H](O[C@H]2[C@@H](O)[C@@H](CO)OC(O)[C@@H]2O)O[C@H](CO)[C@@H](O[C@@H]2O[C@H](CO)[C@H](O)[C@H](O)[C@H]2O)[C@@H]1O[C@@H]1O[C@@H](C)[C@@H](O)[C@@H](O)[C@@H]1O (some centres unmarked) [Le^x tetrasaccharide] | – | BambL was cocrystallised with the Le^x tetrasaccharide
3 | CC(=O)N[C@H]1C(O)O[C@H](CO)[C@@H](O[C@@H]2O[C@H](CO)[C@H](O)[C@H](O)[C@H]2O[C@@H]2O[C@@H](C)[C@@H](O)[C@@H](O)[C@@H]2O)[C@@H]1O (some centres unmarked) [H type 2] | 480 | –
4 | CC(=O)N[C@H]1C(O)O[C@H](CO)[C@@H](O)[C@@H]1O[C@@H]1O[C@H](CO)[C@H](O)[C@H](O)[C@H]1O[C@@H]1O[C@@H](C)[C@@H](O)[C@@H](O)[C@@H]1O (some centres unmarked) [H type 1] | 1390 | –
5 | CC(=O)N[C@H]1[C@H]([C@H](O)[C@H](O)CO)O[C@@](O[C@H]2[C@@H](O)[C@@H](CO)O[C@@H](O[C@H]3[C@H](O[C@@H]4O[C@@H](C)[C@@H](O)[C@@H](O)[C@@H]4O)[C@@H](CO)OC(O)[C@@H]3NC(C)=O)[C@@H]2O)(C(=O)O)C[C@@H]1O (some centres unmarked) [sLe^a] | 290 | –
